Assay results from ChEMBL document CHEMBL3991601, “The target landscape of clinical kinase drugs” (Science, 2017).
Calls of active or inactive are those of the source.

Legend:
[1] = molecular target: BMP-2-inducible protein kinase (Homo sapiens, UniProt Q9NSY1)
[2] = molecular target: T1, Cysteine--tRNA ligase, cytoplasmic (Homo sapiens, UniProt P49589)
T1 sequence (P49589 whole entry): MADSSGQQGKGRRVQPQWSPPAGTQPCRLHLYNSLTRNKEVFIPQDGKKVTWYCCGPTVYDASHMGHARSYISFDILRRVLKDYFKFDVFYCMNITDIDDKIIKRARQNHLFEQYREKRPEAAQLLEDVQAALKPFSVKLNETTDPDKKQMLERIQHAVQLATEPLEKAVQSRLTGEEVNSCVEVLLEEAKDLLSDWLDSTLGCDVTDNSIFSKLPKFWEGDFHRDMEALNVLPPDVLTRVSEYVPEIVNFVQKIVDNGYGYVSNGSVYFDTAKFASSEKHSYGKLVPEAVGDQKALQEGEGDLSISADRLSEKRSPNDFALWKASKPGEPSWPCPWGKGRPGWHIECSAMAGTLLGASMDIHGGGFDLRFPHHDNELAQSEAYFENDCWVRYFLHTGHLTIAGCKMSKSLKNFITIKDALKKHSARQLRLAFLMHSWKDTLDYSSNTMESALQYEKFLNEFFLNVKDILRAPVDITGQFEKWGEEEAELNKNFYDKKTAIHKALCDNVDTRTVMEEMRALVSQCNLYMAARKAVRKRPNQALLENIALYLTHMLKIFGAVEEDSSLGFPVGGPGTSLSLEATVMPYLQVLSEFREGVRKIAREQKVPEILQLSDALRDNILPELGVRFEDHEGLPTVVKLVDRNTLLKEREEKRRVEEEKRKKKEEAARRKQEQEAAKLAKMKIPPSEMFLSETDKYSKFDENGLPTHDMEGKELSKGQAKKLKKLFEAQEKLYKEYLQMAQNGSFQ

Ephrin type-B receptor 2 = molecular target: T2, Ephrin type-B receptor 2 (Homo sapiens, UniProt P29323)
T2 sequence (P29323 whole entry): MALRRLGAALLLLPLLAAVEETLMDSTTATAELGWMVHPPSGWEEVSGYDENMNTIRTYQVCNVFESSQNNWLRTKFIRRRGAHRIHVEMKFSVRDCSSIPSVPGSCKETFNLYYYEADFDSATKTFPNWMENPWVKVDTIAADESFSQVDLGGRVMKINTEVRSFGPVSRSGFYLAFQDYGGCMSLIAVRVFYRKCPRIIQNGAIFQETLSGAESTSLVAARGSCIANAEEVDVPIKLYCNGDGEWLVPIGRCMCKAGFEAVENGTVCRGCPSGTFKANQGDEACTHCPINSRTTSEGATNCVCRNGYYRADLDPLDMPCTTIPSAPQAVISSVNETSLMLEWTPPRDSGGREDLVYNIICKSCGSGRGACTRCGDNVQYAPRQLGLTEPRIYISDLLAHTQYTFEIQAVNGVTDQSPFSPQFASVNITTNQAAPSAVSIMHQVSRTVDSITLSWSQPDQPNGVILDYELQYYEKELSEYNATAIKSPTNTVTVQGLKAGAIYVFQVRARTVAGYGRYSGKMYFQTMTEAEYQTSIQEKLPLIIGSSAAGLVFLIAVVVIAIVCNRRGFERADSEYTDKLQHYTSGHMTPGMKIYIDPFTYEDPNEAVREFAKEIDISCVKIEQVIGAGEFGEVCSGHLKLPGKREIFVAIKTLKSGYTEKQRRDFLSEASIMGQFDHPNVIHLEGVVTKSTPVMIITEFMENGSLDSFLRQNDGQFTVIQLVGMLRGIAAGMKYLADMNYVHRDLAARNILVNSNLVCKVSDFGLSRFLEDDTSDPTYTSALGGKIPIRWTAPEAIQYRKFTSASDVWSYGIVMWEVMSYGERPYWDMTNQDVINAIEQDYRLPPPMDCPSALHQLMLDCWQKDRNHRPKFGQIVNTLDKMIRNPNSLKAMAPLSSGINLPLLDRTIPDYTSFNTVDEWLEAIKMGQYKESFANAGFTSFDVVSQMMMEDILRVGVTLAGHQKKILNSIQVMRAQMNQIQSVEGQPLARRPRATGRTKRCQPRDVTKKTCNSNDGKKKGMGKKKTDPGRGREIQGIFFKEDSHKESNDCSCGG

ADP/ATP translocase 2 = molecular target: T3, ADP/ATP translocase 2 (Homo sapiens, UniProt P05141)
T3 sequence (P05141 whole entry): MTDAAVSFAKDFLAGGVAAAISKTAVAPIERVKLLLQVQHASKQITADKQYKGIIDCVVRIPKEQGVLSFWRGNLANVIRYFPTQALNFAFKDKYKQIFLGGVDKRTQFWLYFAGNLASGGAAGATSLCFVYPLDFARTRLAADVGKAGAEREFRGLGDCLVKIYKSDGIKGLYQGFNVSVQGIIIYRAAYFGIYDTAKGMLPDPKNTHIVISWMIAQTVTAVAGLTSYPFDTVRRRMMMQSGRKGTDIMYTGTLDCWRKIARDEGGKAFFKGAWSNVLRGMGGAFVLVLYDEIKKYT

[3] = molecular target: U5 small nuclear ribonucleoprotein 200 kDa helicase (Homo sapiens, UniProt O75643)
[4] = molecular target: T4, Tyrosine--tRNA ligase, cytoplasmic (Homo sapiens, UniProt P54577)
T4 sequence (P54577 whole entry): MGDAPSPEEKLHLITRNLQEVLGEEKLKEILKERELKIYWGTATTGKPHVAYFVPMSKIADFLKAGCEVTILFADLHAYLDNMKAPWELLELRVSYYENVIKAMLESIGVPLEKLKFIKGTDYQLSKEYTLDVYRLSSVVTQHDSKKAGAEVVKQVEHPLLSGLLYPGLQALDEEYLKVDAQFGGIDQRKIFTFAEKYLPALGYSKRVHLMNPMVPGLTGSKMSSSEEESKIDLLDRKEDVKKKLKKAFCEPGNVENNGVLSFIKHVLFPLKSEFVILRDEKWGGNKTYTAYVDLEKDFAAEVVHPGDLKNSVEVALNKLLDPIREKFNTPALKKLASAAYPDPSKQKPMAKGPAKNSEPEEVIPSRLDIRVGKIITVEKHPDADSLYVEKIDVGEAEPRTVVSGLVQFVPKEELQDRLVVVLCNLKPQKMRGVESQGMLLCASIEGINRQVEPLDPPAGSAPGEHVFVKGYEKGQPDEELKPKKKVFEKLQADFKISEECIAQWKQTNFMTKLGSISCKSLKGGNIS
Further: in the data inactive means no Kd found up to 30 µM.

Chain of U5 small nuclear ribonucleoprotein 200 kDa helicase (O75643 whole entry): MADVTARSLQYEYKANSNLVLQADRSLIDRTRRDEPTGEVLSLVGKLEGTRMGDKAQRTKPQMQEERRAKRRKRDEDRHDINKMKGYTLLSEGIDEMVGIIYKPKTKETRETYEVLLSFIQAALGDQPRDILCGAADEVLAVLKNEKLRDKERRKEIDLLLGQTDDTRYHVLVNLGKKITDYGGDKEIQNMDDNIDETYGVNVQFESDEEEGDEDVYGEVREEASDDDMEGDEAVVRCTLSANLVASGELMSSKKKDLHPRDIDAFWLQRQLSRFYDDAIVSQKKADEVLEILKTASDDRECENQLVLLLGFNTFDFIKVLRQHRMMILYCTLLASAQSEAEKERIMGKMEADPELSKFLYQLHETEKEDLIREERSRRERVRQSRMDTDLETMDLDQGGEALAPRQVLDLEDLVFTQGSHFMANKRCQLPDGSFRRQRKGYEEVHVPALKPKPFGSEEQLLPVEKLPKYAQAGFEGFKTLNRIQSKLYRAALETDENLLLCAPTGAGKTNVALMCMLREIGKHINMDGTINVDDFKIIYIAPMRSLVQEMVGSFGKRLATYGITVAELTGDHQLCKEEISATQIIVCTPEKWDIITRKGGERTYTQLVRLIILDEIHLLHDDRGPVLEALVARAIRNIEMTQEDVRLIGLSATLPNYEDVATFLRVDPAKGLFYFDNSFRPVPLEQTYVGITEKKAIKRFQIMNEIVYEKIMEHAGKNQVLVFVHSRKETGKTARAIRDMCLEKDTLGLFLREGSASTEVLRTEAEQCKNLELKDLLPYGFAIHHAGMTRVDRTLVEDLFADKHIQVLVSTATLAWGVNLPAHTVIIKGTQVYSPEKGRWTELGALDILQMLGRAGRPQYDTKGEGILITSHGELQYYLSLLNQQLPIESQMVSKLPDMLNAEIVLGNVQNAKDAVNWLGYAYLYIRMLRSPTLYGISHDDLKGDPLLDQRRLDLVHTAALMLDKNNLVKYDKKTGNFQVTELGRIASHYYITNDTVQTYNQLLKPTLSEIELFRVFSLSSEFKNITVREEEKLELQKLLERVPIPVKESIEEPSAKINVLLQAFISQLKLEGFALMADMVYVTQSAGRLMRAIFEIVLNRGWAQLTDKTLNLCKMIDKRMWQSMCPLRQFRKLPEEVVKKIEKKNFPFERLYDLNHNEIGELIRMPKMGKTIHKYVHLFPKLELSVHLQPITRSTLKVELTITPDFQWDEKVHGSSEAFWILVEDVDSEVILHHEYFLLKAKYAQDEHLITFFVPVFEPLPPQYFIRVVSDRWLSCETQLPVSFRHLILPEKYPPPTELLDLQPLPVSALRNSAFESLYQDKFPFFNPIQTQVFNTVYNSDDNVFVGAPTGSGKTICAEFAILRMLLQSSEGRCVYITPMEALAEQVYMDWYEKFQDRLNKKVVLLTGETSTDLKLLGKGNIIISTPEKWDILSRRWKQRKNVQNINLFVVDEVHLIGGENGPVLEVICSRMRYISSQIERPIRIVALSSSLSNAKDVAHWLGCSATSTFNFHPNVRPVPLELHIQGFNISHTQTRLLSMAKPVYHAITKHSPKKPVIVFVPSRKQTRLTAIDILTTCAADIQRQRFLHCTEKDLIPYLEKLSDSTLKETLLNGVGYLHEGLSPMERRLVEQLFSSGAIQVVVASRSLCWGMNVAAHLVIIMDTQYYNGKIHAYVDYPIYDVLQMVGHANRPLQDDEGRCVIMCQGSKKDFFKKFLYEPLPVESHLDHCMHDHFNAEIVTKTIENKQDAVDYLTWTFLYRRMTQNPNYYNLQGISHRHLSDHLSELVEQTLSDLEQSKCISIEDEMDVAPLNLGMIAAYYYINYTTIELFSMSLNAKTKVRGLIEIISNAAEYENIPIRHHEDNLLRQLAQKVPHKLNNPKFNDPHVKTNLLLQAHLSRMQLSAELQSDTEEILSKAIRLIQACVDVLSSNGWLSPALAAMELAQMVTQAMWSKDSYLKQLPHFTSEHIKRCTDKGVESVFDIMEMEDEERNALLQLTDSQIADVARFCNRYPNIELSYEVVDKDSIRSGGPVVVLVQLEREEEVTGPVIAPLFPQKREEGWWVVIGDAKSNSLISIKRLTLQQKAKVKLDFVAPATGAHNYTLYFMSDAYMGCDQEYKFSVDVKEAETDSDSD
Chain of BMP-2-inducible protein kinase (Q9NSY1 whole entry): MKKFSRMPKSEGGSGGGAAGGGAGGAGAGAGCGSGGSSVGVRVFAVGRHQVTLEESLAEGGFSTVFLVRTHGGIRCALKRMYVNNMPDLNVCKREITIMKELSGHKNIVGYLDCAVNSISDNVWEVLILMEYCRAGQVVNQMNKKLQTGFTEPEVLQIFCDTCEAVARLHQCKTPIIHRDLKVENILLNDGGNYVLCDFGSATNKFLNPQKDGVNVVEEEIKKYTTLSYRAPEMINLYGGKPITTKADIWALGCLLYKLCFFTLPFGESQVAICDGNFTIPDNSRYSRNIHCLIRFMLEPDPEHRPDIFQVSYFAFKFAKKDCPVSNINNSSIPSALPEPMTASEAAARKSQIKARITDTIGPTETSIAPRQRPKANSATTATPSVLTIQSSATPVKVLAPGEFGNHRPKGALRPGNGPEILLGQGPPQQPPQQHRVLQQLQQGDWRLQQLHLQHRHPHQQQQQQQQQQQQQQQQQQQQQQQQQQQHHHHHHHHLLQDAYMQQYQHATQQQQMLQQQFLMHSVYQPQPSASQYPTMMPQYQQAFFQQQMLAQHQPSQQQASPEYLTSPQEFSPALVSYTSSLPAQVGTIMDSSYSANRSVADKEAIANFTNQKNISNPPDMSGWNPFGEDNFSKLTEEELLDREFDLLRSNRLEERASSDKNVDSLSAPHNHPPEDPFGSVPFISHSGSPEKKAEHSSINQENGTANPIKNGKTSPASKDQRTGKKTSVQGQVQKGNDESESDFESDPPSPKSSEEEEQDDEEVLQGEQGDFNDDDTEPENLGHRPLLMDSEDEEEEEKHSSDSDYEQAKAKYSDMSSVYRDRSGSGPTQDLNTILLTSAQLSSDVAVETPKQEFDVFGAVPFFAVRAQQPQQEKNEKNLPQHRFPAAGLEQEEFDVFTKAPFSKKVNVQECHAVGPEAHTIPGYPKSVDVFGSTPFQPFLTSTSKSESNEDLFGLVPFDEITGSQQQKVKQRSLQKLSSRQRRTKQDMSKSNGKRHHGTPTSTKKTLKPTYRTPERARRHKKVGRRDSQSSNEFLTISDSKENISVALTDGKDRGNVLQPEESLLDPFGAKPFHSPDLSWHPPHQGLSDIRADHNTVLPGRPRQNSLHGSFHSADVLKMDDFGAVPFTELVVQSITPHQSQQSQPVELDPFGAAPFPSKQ

C[C@]1(O)C[C@@H](c2nc(-c3ccc4ccc(-c5ccccc5)nc4c3)c3c(N)nccn32)C1 [LINSITINIB]
Kd [1]: > 30 µM (inactive)
Kd [2]: > 30 µM (inactive)
Kd (Ephrin type-B receptor 2): > 30 µM (inactive)
Kd (ADP/ATP translocase 2): > 30 µM (inactive)
Kd [3]: > 30 µM (inactive)
Kd [4]: > 30 µM (inactive)

COc1cc2ncnc(Nc3ccc(O)cc3)c2cc1OC [WHI-P131]
Kd [1]: > 30 µM (inactive)
Kd [2]: > 30 µM (inactive)
Kd (Ephrin type-B receptor 2): > 30 µM (inactive)
Kd (ADP/ATP translocase 2): > 30 µM (inactive)
Kd [3]: > 30 µM (inactive)
Kd [4]: > 30 µM (inactive)

O=C(O)c1ccc2c(c1)nc(Nc1cccc(Cl)c1)c1ccncc12 [SILMITASERTIB]
Kd [1]: > 30 µM (inactive)
Kd [2]: > 30 µM (inactive)
Kd (Ephrin type-B receptor 2): > 30 µM (inactive)
Kd (ADP/ATP translocase 2): > 30 µM (inactive)
Kd [3]: > 30 µM (inactive)
Kd [4]: > 30 µM (inactive)

Cn1c(=O)n(-c2ccc(C(C)(C)C#N)cc2)c2c3cc(-c4cnc5ccccc5c4)ccc3ncc21 [DACTOLISIB]
Kd [1]: > 30 µM (inactive)
Kd [2]: > 30 µM (inactive)
Kd (Ephrin type-B receptor 2): > 30 µM (inactive)
Kd (ADP/ATP translocase 2): > 30 µM (inactive)
Kd [3]: > 30 µM (inactive)
Kd [4]: > 30 µM (inactive)

S=C(NCc1ccc2c(c1)OCO2)N1CCN(c2ncnc3c2oc2ccccc23)CC1 [AMUVATINIB]
Kd [1]: > 30 µM (inactive)
Kd [2]: > 30 µM (inactive)
Kd (Ephrin type-B receptor 2): > 30 µM (inactive)
Kd (ADP/ATP translocase 2): > 30 µM (inactive)
Kd [3]: > 30 µM (inactive)
Kd [4]: > 30 µM (inactive)

CN1CCN(c2nc(C3=C(c4c[nH]c5ccccc45)C(=O)NC3=O)c3ccccc3n2)CC1 [SOTRASTAURIN]
Kd [1]: > 30 µM (inactive)
Kd [2]: > 30 µM (inactive)
Kd (Ephrin type-B receptor 2): > 30 µM (inactive)
Kd (ADP/ATP translocase 2): > 30 µM (inactive)
Kd [3]: > 30 µM (inactive)
Kd [4]: > 30 µM (inactive)

CCOc1ccn(-c2ccc(F)cc2)c(=O)c1C(=O)Nc1ccc(Oc2ccnc(N)c2Cl)c(F)c1 [BMS-777607]
Kd [1]: > 30 µM (inactive)
Kd [2]: > 30 µM (inactive)
Kd (Ephrin type-B receptor 2): > 30 µM (inactive)
Kd (ADP/ATP translocase 2): > 30 µM (inactive)
Kd [3]: > 30 µM (inactive)
Kd [4]: > 30 µM (inactive)

CC1(COc2ccc3c(c2)ncn3-c2ccc3cccc(N4CCC(N)CC4)c3n2)COC1 [CRENOLANIB]
Kd [1]: 1.2 µM (active)
Kd [2]: > 30 µM (inactive)
Kd (Ephrin type-B receptor 2): > 30 µM (inactive)
Kd (ADP/ATP translocase 2): > 30 µM (inactive)
Kd [3]: > 30 µM (inactive)
Kd [4]: 3.32 µM

COc1cc(F)c(F)c(Nc2ccc(I)cc2F)c1NS(=O)(=O)C1(C[C@H](O)CO)CC1 [REFAMETINIB]
Kd [1]: > 30 µM (inactive)
Kd [2]: > 30 µM (inactive)
Kd (Ephrin type-B receptor 2): > 30 µM (inactive)
Kd (ADP/ATP translocase 2): > 30 µM (inactive)
Kd [3]: > 30 µM (inactive)
Kd [4]: > 30 µM (inactive)

COc1cccc2cc(-c3nc([C@H]4CC[C@H](C(=O)O)CC4)n4ncnc(N)c34)[nH]c12 [OSI-027]
Kd [1]: > 30 µM (inactive)
Kd [2]: > 30 µM (inactive)
Kd (Ephrin type-B receptor 2): > 30 µM (inactive)
Kd (ADP/ATP translocase 2): > 30 µM (inactive)
Kd [3]: > 30 µM (inactive)
Kd [4]: > 30 µM (inactive)

CNC(=O)c1ccc(Nc2ncc(C(F)(F)F)c(NCc3nccnc3N(C)S(C)(=O)=O)n2)cc1 [DEFACTINIB]
Kd [1]: > 30 µM (inactive)
Kd [2]: > 30 µM (inactive)
Kd (Ephrin type-B receptor 2): > 30 µM (inactive)
Kd (ADP/ATP translocase 2): > 30 µM (inactive)
Kd [3]: > 30 µM (inactive)
Kd [4]: > 30 µM (inactive)

Cc1ccc(C(=O)Nc2ccc(Oc3cc4cnn(C)c4cc3-c3cn[nH]c3)c(F)c2)c(=O)n1-c1ccc(F)cc1 [MERESTINIB]
Kd [1]: > 30 µM (inactive)
Kd [2]: > 30 µM (inactive)
Kd (Ephrin type-B receptor 2): > 30 µM (inactive)
Kd (ADP/ATP translocase 2): > 30 µM (inactive)
Kd [3]: > 30 µM (inactive)
Kd [4]: > 30 µM (inactive)

CC(C)(O)CC(=O)NCCn1ccc2ncnc(Nc3ccc(Oc4cccc(C(F)(F)F)c4)c(Cl)c3)c21 [TAK-285]
Kd [1]: > 30 µM (inactive)
Kd [2]: > 30 µM (inactive)
Kd (Ephrin type-B receptor 2): > 30 µM (inactive)
Kd (ADP/ATP translocase 2): > 30 µM (inactive)
Kd [3]: > 30 µM (inactive)
Kd [4]: > 30 µM (inactive)

CNC(=O)c1cccc(-c2ccc3c(N4CCOC[C@@H]4C)nc(N4CCOC[C@@H]4C)nc3n2)c1 [VISTUSERTIB]
Kd [1]: > 30 µM (inactive)
Kd [2]: > 30 µM (inactive)
Kd (Ephrin type-B receptor 2): > 30 µM (inactive)
Kd (ADP/ATP translocase 2): > 30 µM (inactive)
Kd [3]: > 30 µM (inactive)
Kd [4]: > 30 µM (inactive)

c1cc(OCCN2CCCCC2)cc(-c2n[nH]c3ccc(-c4nc[nH]n4)cc23)c1 [CC-401]
Kd [1]: 1.47 µM (active)
Kd [2]: > 30 µM (inactive)
Kd (Ephrin type-B receptor 2): > 30 µM (inactive)
Kd (ADP/ATP translocase 2): > 30 µM (inactive)
Kd [3]: > 30 µM (inactive)
Kd [4]: > 30 µM (inactive)

C=CC(=O)Nc1cc(Nc2nccc(-c3cn(C)c4ccccc34)n2)c(OC)cc1N(C)CCN(C)C [OSIMERTINIB]
Kd [1]: > 30 µM (inactive)
Kd [2]: 0.012 µM
Kd (Ephrin type-B receptor 2): > 30 µM (inactive)
Kd (ADP/ATP translocase 2): > 30 µM (inactive)
Kd [3]: > 30 µM (inactive)
Kd [4]: > 30 µM (inactive)

COc1cc(Nc2ncc(F)c(Nc3ccc4c(n3)N(COP(=O)(O)O)C(=O)C(C)(C)O4)n2)cc(OC)c1OC [FOSTAMATINIB]
Kd [1]: > 30 µM (inactive)
Kd [2]: > 30 µM (inactive)
Kd (Ephrin type-B receptor 2): > 30 µM (inactive)
Kd (ADP/ATP translocase 2): > 30 µM (inactive)
Kd [3]: > 30 µM (inactive)
Kd [4]: > 30 µM (inactive)

COc1ccc2c(OCc3nnc4ccc(-c5ccccc5)nn34)ccnc2c1 [AMG-208]
Kd [1]: > 30 µM (inactive)
Kd [2]: > 30 µM (inactive)
Kd (Ephrin type-B receptor 2): > 30 µM (inactive)
Kd (ADP/ATP translocase 2): > 30 µM (inactive)
Kd [3]: > 30 µM (inactive)
Kd [4]: > 30 µM (inactive)

CC(C)CC(=O)Nc1[nH]nc2c1CN(C(=O)C1CCN(C)CC1)C2(C)C [PHA-793887]
Kd [1]: > 30 µM (inactive)
Kd [2]: > 30 µM (inactive)
Kd (Ephrin type-B receptor 2): > 30 µM (inactive)
Kd (ADP/ATP translocase 2): > 30 µM (inactive)
Kd [3]: > 30 µM (inactive)
Kd [4]: > 30 µM (inactive)

C=CCn1c(=O)c2cnc(Nc3ccc(N4CCN(C)CC4)cc3)nc2n1-c1cccc(C(C)(C)O)n1 [ADAVOSERTIB]
Kd [1]: > 30 µM (inactive)
Kd [2]: > 30 µM (inactive)
Kd (Ephrin type-B receptor 2): > 30 µM (inactive)
Kd (ADP/ATP translocase 2): > 30 µM (inactive)
Kd [3]: > 30 µM (inactive)
Kd [4]: > 30 µM (inactive)
